# Assays:
# Type in all cases: in vivo
# Conditions in all cases: Konzett data
# [1] = tested on: 5-HT; test: Konzett test, 5-HT (bronchodilator activity)
# [2] = tested on: Hist; test: Konzett test, Hist (bronchodilator activity)
# [3] = tested on: Ach; test: Konzett test, Ach (bronchodilator activity)
structure (smiles),measurement,setting,value
"CCCCCC(C)(O)/C=C/C1C(O)CC(=O)C1C/C=C\CCCCO (racemic) [dl-1,11,15-trihydroxymethyl-9-oxo-15-methyl-5-cis-13-trans prostadiene]",5-HT (ED50 g/kg),[1],0.0083 g/kg
same,Hist (ED50 g/kg),[2],0.00075 g/kg
same,Ach (ED50 g/kg),[3],0.0043 g/kg
